US12459921B2, “Isoindoline compound, preparation method, pharmaceutical composition and use thereof” (SHANGHAI INSTITUTE OF MATERIA MEDICA, CHINESE ACADEMY OF …, priority 2018, dated 2025)
pIC50: −log10 of the molar value.

Tested on: MM.1S cells
Experiment: Inhibitory effect on the proliferation of MM.1S, MTS cell viability test
Format: cell-based
Conditions: Homo sapiens, MM1.S, 168 h, multiple myeloma MM.1S cells, 7 days incubation, read-out: Tumor cell inhibitory activity
Experimental: Method of tumor cell proliferation inhibition test: the inventors tested all the example compounds on hematologic tumor cells, multiple myeloma MMTs cell line and acute leukemia cell MV-4-11 cell line of some examples. The activity test method and results are as follows.
1. The Compound's Inhibitory Effect on the Proliferation of MM.1S, MTS Cell Viability Test:
MM.1S cells were cultured and collected with 1640 plus 10% fetal bovine serum. The cell concentration was diluted according to 7 days, and 180 ul cell suspension was added to each well of the 96-well cell plate to 20,000 cells. 20 ul of DMSO with a final concentration of 0.2% was added to the control wells. The compound was 5-fold diluted—from the 10 mM stock solution, and 20 ul was also added to each compound cell well (the final concentration of DMSO was 0.2%). The cells were placed in a 37° C., 5% CO2 incubator to incubate for 7 days. After the reaction solution was prepared according to the MTS kit (Promega, G5430), 20 μL was added to each well and incubated in a 37° C., 5% CO2 incubator for 3-4 h. Absorbance value at 490 nm was read with a microtiter plate, and 690 nm absorbance value was used as the background value. OD490-OD690 was used as the final initial data. The formula for calculating the inhibition rate of the compound is: inhibition rate=(ODDMSO-ODcompound)/(ODDMSO-Oblank)×100%. The compound's proliferation inhibition IC50 was fitted by Graph Pad Prism 5.0. The experiment was repeated three times, and the average and standard deviation was calculated according to the three parallel experiments.
Cell viability test results: **** represents cell viability IC50>20 μM, […] represents cell viability 1 μM<IC50<20 μM, ** represents cell viability 100 nM<IC50<1 μM, * represents cell viability IC50<100 nM.

pIC50	Compound
6.00 to 7.00	CC(=O)N[C@@H](CCCc1cccc2c1CN(C1CCC(=O)NC1=O)C2=O)C(=O)N[C@@H]1CCc2ccccc21 (stereo partly drawn) [Example 177, (2S)-2-acetylamino-N—((R)-2,3-dihydro-1H-indene-1-)-5-(2-(2,6-dioxopiperidine-3-)-1-oxoisoindoline-4-)pentanamide]
4.70 to 6.00	CC(=O)N[C@@H](CCCc1cccc2c1CN(C1CCC(=O)NC1=O)C2=O)C(=O)N(C)Cc1ccccc1 (stereo partly drawn) [Example 204, (2S)-2-acetylamino-N-benzyl-5-(2-(2,6-oxopiperidine-3-)-1-oxoisoindoline-4-)-N-methylpentanamide]
6.00 to 7.00	CC(=O)N[C@@H](CCCc1cccc2c1CN(C1CCC(=O)NC1=O)C2=O)C(=O)N[C@H]1CCc2ccccc21 (stereo partly drawn) [Example 175]
6.00 to 7.00	O=C1CCC(N2Cc3c(OCCNC(=O)N4CCN(c5cccc(Cl)c5Cl)CC4)cccc3C2=O)C(=O)N1 (stereo not drawn) [Example 32, 4-(2,3-dichlorophenyl)-N-(2-((2-(2,6-dioxopiperidine-3-)-1-oxoisoindoline-4-)oxy)ethyl)piperazine-1-carboxamide]
> 7.00	CC(=O)N[C@@H](CCCc1cccc2c1CN(C1CCC(=O)NC1=O)C2=O)C(=O)N[C@H]1CCCc2ccccc21 (stereo partly drawn) [Example 179, (2S)-2-acetylamino-5-(2-(2,6-dioxopiperidine-3-)-1-oxoisoindoline-4-)-N—((S)-1,2,3,4-tetrahydronaphthyl-1-)pentanamide]
> 7.00	O=C1CCC(N2Cc3c(CCCCN4CCN(c5ccc(Cl)c(Cl)c5)CC4)cccc3C2=O)C(=O)N1 (stereo not drawn) [Example 44, 3-(4-(4-(4-(3,4-dichlorophenyl)piperazine-1-)butyl)-1-oxoisoindoline-2-)piperidine-2,6-dione]
> 7.00	N#CC1(c2ccccc2Cl)CCN(C(=O)CCCCOc2cccc3c2CN(C2CCC(=O)NC2=O)C3=O)CC1 (stereo not drawn) [Example 85, 4-(2-chlorophenyl)-1-(5-((2-(2,6-dioxopiperidine-3-)-1-oxoisoindoline-4-)oxy)valeryl)piperidine-4-carbonitrile]
> 7.00	Cc1ccc(NC(=O)[C@H](CCCc2cccc3c2CN(C2CCC(=O)NC2=O)C3=O)NC(=O)CCCCCO)cc1Cl (stereo partly drawn) [Example 193, N-((2S)-1-(3-chloro-4-methylaniline)-5-(2-(2,6-dioxopiperidine-3-)-1-oxoisoindoline-4-)-1-oxopentyl-2-)-6-hydroxyhexanamide]
> 7.00	N#Cc1ccc(N2CCN(CCCCc3cccc4c3CN(C3CCC(=O)NC3=O)C4=O)CC2)cc1 (stereo not drawn) [Example 36, 4-(4-(4-(2-(2,6-dioxopiperidine-3-)-1-oxoisoindoline-4-)butyl)piperazine-1-)benzonitrile]
4.70 to 6.00	CC(=O)N[C@@H](CCCc1cccc2c1CN(C1CCC(=O)NC1=O)C2=O)C(=O)Nc1ccccc1-c1cccnc1 (stereo partly drawn) [Example 196, (2S)-2-acetylamino-5-(2-(2,6-dioxopiperidine-3-)-1-oxoisoindoline-4-)-N-(2-(pyridine-3-)phenyl)pentanamide]
> 7.00	O=C1CCC(N2Cc3c(CCCCN4CCN(c5ccc(C(F)(F)F)cc5)CC4)cccc3C2=O)C(=O)N1 (stereo not drawn) [Example 45, 3-(1-oxo-4-(4-(4-(4-trifluoromethylphenyl)piperazine-1-)butyl)isoindoline-2-)piperidine-2,6-dione]
4.70 to 6.00	O=C1CCC(N2Cc3c(OCCCNC(=O)N4CCN(c5cccc(Cl)c5Cl)CC4)cccc3C2=O)C(=O)N1 (stereo not drawn) [Example 34]
6.00 to 7.00	O=C1CCC(N2Cc3c(CCCCCN4CCN(c5cc(Cl)cc(Cl)c5)CC4)cccc3C2=O)C(=O)N1 (stereo not drawn) [Example 237, 3-(4-(5-(4-(3,5-dichlorophenyl)piperazine-1-yl)pentyl)-1-oxoisoindoline-2-yl)piperidine-2,6-dione]
4.70 to 6.00	O=C1CCC(N2Cc3c(CCCCCN4CCN(c5ccc(Cl)cc5Cl)CC4)cccc3C2=O)C(=O)N1 (stereo not drawn) [Example 236, 3-(4-(5-(4-(2,4-dichlorophenyl)piperazine-1-yl)pentyl)-1-oxoisoindoline-2-yl)piperidine-2,6-dione]
> 7.00	O=C1CCC(N2Cc3c(CCCCN4CCN(c5cccc(Cl)c5Cl)CC4)cccc3C2=O)C(=O)N1 (stereo not drawn) [Example 21, 3-(4-(4-(4-(2,3-dichlorophenyl)piperazine-1-)butyl)-1-oxoisoindoline-2-)piperidine-2,6-dione]
> 7.00	O=C1CCC(N2Cc3c(CCCCCCN4CCN(c5cccc(Cl)c5Cl)CC4)cccc3C2=O)C(=O)N1 (stereo not drawn) [Example 35, 3-(4-(6-(4-(2,3-dichlorophenyl)piperazine-1-)hexyl)-1-oxoisoindoline-2-)piperidine-2,6-dione]

Compound	pIC50
O=C1CCC(N2Cc3c(OCCCN4CCC5(CC4)OCc4ccc(Cl)cc45)cccc3C2=O)C(=O)N1 (stereo not drawn) [Example 138, 3-(4-(3-(6-chloro-3H-spiro[isobenzofuran-1,4′-piperidine]-1′-)propoxy)-1-oxoisoindoline-2-)piperidine-2,6-dione]	> 7.00
N#CC1(c2ccccc2F)CCN(CCCOc2cccc3c2CN(C2CCC(=O)NC2=O)C3=O)CC1 (stereo not drawn) [Example 61, 1-(3-((2-(2,6-dioxopiperidine-3-)-1-oxoisoindoline-4-)oxy)propyl)-4-(2-fluorophenyl)piperidine-4-carbonitrile]	6.00 to 7.00
O=C1CCC(N2Cc3c(CCCCCN4CCC5(CC4)OC(=O)Nc4ncccc45)cccc3C2=O)C(=O)N1 (stereo not drawn) [Example 131, 3-(1-oxo-4-(5-(2′-oxo-1′,2′-dihydrospiro[piperidine-4,4′-pyrido[2,3-d][1,3)oxazine)-1-)pentyl)isoindoline-2-)piperidine-2,6-dione]	6.00 to 7.00
COCCOc1ccc(C2(C#N)CCN(CCCCCc3cccc4c3CN(C3CCC(=O)NC3=O)C4=O)CC2)cc1 (stereo not drawn) [Example 264, 1-(5-(2-(2,6-dioxopiperidin-3-yl)-1-oxoisoindolin-4-yl)pentyl)-4-(4-(2-methoxyethoxy)phenyl)piperidine-4-carbonitrile]	6.00 to 7.00
N#CC1(c2ccccc2OC(F)(F)F)CCN(CCCOc2cccc3c2CN(C2CCC(=O)NC2=O)C3=O)CC1 (stereo not drawn) [Example 78, 1-(3-((2-(2,6-dioxopiperidine-3-)-1-oxoisoindoline-4-)-oxy-)propyl)-4-(2-trifluoromethoxyphenyl)piperidine-4-carbonitrile]	> 7.00
N#CC1(c2ccc(Cl)cc2F)CCN(CCCOc2cccc3c2CN(C2CCC(=O)NC2=O)C3=O)CC1 (stereo not drawn) [Example 72, 4-(4-chloro-2-fluorophenyl)-1-(3-((2-(2,6-dioxopiperidine-3-)-1-oxoisoindoline-4-)oxy)propyl)piperidine-4-carbonitrile]	> 7.00
O=C1CCC(N2Cc3c(OCCCC(=O)N4CCCc5ccccc54)cccc3C2=O)C(=O)N1 (stereo not drawn) [Example 117, 3-(4-(4-(3,4-dihydroquinoline-1(2H)-)-4-oxobutoxy)-1-oxoisoindoline-2-)piperidine-2,6-dione]	6.00 to 7.00
Cc1ccc2c(c1)C1(CCN(CCCCCOc3cccc4c3CN(C3CCC(=O)NC3=O)C4=O)CC1)OC2 (stereo not drawn) [Example 146, 3-(4-((5-(6-methyl-3H-spiro[isobenzofuran-1,4′-piperidine]-1′-)pentyl)oxy)-1-oxoisoindoline-2-)piperidine-2,6-dione]	> 7.00
N#CC1(c2ccc(F)cc2)CCN(CCCOc2cccc3c2CN(C2CCC(=O)NC2=O)C3=O)CC1 (stereo not drawn) [Example 65, 1-(3-((2-(2,6-dioxopiperidine-3-)-1-oxoisoindoline-4-)oxy)propyl)-4-(4-fluorophenyl)piperidine-4-carbonitrile]	6.00 to 7.00
O=C1CCC(N2Cc3c(OCCCCN4CCC5(CC4)OCc4ccccc45)cccc3C2=O)C(=O)N1 (stereo not drawn) [Example 126, 3-(4-(4-(2H-spiro[benzofuran-3,4′-piperidine]-1′-)butoxy)-1-oxoisoindoline-2-)piperidine-2,6-dione]	> 7.00
N#CC1(c2ccc(Cl)cc2)CCN(CCCCCOc2cccc3c2CN(C2CCC(=O)NC2=O)C3=O)CC1 (stereo not drawn) [Example 81, 4-(4-chlorophenyl)-1-(5-((2-(2,6-dioxopiperidine-3-)-1-oxoisoindoline-4-)oxy)pentyl) piperidine-4-carbonitrile]	> 7.00
N#CC1(c2ccc(O[C@H]3CCOC3)cc2)CCN(CCCCCc2cccc3c2CN(C2CCC(=O)NC2=O)C3=O)CC1 (stereo partly drawn) [Example 252, 1-(5-(2-(2,6-dioxopiperidin-3-yl)-1-oxoisoindolin-4-yl)pentyl)-4-(4-(((S)-tetrahydrofuran-3-yl)oxy)phenyl)piperidine-4-carbonitrile]	6.00 to 7.00
O=C1CCC(N2Cc3c(CCCCCN4CCC5(CC4)C(=O)Nc4ccccc45)cccc3C2=O)C(=O)N1 (stereo not drawn) [Example 121, 3-(1-oxo-4-(5-(2-oxospiro[indoline-3,4′-piperidine]-1′-)pentyl)indoline-2-)piperidine-2,6-dione]	> 7.00
N#CC1(c2cccc(OC(F)(F)F)c2)CCN(CCCOc2cccc3c2CN(C2CCC(=O)NC2=O)C3=O)CC1 (stereo not drawn) [Example 71, 1-(3-((2-(2,6-dioxopiperidine-3-)-1-oxoisoindoline-4-)oxy)propyl)-4-(3-trifluoromethoxyphenyl)piperidine-4-carbonitrile]	> 7.00
